# In ChEMBL document CHEMBL1201862, “PubChem BioAssay data set” (2004):
# Values joined by “and” are separate entries in the source; they are usually repeats but may differ in a detail not shown here. Identical values can stand only once. Active and inactive are the calls of the source.
# What was measured:
# [1] = biological target: T1, Zinc finger protein mex-5 (Caenorhabditis elegans, UniProt Q9XUB2); test: MEX-5/TCR-2 RNA interaction inhibitors, dose response, biochemical, C. elegans, fluorescence polarization (AID 1960)
# T1 sequence (Q9XUB2 whole entry): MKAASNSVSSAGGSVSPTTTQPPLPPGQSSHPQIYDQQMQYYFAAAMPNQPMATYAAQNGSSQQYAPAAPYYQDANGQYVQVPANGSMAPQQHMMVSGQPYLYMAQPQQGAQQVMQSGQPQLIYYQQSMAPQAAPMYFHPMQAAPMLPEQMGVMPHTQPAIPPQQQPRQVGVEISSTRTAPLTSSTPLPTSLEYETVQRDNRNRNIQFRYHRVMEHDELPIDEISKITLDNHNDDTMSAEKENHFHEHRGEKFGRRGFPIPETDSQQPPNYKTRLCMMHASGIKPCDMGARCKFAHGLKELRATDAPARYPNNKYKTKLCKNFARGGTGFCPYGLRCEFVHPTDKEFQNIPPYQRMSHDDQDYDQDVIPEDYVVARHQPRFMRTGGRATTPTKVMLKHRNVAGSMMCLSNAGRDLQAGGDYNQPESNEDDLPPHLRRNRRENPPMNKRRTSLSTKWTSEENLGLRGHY
# [2] = biological target: T2, RNA-binding protein pos-1 (Caenorhabditis elegans, UniProt G5EF15); test: inhibitors of POS-1/mex-3 RNA binding, dose response, biochemical, fluorescence polarization (AID 1964);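 also: purified POS-1 fused to maltose binding protein made in E. coli; potency of compounds blocking POS-1 binding to fluorescent RNA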
# T2 sequence (G5EF15 whole entry): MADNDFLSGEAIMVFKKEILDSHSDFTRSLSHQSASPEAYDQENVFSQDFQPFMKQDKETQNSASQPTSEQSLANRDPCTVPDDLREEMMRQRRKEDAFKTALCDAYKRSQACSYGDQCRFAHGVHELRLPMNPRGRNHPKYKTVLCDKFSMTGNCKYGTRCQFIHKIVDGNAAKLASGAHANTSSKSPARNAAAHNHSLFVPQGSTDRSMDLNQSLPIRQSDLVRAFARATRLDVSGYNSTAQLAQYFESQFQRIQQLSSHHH
# Protein skinhead-1 = biological target: T3, Protein skinhead-1 (Caenorhabditis elegans, UniProt P34707); assay type: functional
# T3 sequence (P34707 whole entry): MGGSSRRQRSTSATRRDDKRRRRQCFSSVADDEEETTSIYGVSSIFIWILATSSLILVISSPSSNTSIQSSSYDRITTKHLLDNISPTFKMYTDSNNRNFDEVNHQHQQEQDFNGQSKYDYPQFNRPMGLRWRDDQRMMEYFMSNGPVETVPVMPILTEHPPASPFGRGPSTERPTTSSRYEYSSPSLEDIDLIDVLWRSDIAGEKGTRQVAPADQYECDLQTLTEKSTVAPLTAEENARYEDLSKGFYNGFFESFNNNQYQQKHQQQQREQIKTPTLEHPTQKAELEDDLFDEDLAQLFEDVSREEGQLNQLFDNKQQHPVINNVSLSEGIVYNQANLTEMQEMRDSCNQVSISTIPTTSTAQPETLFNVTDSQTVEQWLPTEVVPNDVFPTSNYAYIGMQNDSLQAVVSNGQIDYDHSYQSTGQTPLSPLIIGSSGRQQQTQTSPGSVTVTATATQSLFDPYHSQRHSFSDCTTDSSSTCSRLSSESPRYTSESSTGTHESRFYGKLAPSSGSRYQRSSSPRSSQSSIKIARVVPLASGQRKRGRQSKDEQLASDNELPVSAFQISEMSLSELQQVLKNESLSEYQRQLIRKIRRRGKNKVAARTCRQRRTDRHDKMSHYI
# INS1 = test: beta cell apoptosis inhibitors, cytokine rescue, dose response, luminescence, retest (AID 449756); assay type: functional, cell-based; details: Rattus norvegicus;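 also: cell death triggered by IL-1 beta plus TNF-alpha plus IFN-gamma mixture; protective hits raise ATP signal compared with cytokine alone wells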
# [3] = P. falciparum Dd2 growth inhibitors, dose response, SYBR Green, cherry-picked samples (AID 1159567); assay type: functional, cell-based
# [4] = biological target: T4, Heat shock factor protein 1 (Mus musculus, UniProt P38532); test: HSF1 potentiators in luciferase reporter cells, confirmation, cell-based, NIH3T3, luminescence, dose retest (AID 435004); assay type: functional;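 also: stress induced by proteasome inhibitor MG132 added 30 min after compound; luciferase reporter driven by HSF1 response element in NIH3T3 cells; actives raise luminescence as potentiators of the MG132 stress response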
# T4 sequence (P38532 whole entry): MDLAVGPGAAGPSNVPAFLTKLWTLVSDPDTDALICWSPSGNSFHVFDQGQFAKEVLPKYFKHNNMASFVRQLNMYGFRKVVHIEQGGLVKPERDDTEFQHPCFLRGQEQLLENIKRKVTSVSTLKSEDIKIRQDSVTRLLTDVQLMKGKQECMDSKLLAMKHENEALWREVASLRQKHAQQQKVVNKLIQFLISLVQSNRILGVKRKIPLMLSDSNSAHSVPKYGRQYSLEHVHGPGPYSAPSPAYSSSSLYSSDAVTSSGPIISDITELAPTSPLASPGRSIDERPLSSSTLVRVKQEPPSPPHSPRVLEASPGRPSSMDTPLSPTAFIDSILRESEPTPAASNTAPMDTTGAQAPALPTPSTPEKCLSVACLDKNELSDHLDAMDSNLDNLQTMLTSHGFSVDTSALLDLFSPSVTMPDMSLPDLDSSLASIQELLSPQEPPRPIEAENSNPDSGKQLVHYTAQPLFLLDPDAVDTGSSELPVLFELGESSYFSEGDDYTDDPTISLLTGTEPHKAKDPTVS
# [5] = biological target: T4, Heat shock factor protein 1; test: inhibition of MG132-induced HSE-luciferase signal, confirmation, cell-based, NIH3T3, luminescence, dose retest (AID 2382); assay type: functional;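 also: NIH3T3 fibroblasts with HSF1-driven luciferase reporter stressed by proteasome inhibitor MG132; luminescence from HSF1-driven luciferase expression after 8 hours of MG132 stress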
# Cytochrome P450 2D6 = Cytochrome P450 2D6 (Homo sapiens, UniProt P10635);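 also: CYP2D6 member of a cytochrome P450 panel assay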
# Cytochrome P450 3A4 = Cytochrome P450 3A4 (Homo sapiens, UniProt P08684);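 also: CYP3A4 tested as one member of a cytochrome P450 panel screen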
# [6] = Luminescence Cell-Based Dose Confirmation HTS to Identify Activators of 5'UTR Stem-Loop Driven Alpha-Synuclein mRNA Translation in H4 Neuroglioblastoma Cells. [Related pubchem assays: 1829 (Project Summary), 1814 (Primary HTS)]; assay type: functional
# [7] = Luminescence Cell-Based Dose Response HTS to Identify Activators of Luciferase Translation or Activity in H4 […] Cells. [Related pubchem assays: 1829 (Project Summary), 1814 (Primary HTS)]; assay type: functional
# Cytochrome P450 2C9 = Cytochrome P450 2C9 (Homo sapiens, UniProt P11712)
# Cytochrome P450 2C19 = Cytochrome P450 2C19 (Homo sapiens, UniProt P33261); test: Cytochrome panel assay with activity outcomes. Panel member name: p450-cyp2c19 Compounds with AC50 equal or less than 10 uM are considered active; assay type: functional; details: read-out: AC50
# Cytochrome P450 1A2 = biological target: T5, Cytochrome P450 1A2 (Homo sapiens, UniProt P05177);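 also: PubChem cytochrome P450 panel assay, CYP1A2 panel member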
# T5 sequence (P05177 whole entry): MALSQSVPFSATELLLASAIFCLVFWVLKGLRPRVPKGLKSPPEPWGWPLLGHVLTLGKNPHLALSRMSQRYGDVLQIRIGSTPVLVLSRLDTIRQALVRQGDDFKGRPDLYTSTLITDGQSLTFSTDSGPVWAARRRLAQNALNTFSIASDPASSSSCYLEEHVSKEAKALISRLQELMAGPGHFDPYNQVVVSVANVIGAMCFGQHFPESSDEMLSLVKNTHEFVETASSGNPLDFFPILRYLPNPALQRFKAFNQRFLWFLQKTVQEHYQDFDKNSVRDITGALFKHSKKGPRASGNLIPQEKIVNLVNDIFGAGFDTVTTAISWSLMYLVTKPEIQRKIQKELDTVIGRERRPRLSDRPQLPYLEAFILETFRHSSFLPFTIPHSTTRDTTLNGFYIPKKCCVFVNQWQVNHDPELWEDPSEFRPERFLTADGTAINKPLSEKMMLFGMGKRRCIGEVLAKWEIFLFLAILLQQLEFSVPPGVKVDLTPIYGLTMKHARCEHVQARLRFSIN
# Cytochrome P450 2D6, sequence (P10635 whole entry): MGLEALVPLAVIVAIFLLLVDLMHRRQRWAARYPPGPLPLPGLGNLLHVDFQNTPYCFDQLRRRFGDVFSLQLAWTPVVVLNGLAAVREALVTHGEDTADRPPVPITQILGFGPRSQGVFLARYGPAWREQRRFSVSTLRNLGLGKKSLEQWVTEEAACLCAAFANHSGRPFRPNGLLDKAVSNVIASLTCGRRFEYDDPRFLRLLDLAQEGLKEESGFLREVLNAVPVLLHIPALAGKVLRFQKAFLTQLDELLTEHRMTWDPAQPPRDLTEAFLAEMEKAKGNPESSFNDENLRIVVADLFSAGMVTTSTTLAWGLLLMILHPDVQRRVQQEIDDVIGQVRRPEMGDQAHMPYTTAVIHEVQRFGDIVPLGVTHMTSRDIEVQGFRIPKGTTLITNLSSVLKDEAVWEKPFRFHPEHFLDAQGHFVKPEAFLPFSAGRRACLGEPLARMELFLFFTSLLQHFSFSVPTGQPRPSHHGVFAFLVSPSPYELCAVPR
# Cytochrome P450 3A4, sequence (P08684 whole entry): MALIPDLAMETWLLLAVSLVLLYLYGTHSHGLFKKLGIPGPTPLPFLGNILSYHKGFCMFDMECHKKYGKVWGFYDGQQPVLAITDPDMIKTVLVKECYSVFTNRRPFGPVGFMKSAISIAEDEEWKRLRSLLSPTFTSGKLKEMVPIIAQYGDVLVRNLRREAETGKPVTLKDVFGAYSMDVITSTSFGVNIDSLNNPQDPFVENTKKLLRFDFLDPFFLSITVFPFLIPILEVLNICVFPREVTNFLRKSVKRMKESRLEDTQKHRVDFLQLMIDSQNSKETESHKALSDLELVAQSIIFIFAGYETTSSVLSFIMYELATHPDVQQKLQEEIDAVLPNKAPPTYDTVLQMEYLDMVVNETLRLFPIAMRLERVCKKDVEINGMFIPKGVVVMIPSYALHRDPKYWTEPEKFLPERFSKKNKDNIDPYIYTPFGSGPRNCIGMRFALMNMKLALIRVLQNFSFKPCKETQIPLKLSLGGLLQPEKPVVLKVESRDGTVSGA
# Cytochrome P450 2C9, sequence (P11712 whole entry): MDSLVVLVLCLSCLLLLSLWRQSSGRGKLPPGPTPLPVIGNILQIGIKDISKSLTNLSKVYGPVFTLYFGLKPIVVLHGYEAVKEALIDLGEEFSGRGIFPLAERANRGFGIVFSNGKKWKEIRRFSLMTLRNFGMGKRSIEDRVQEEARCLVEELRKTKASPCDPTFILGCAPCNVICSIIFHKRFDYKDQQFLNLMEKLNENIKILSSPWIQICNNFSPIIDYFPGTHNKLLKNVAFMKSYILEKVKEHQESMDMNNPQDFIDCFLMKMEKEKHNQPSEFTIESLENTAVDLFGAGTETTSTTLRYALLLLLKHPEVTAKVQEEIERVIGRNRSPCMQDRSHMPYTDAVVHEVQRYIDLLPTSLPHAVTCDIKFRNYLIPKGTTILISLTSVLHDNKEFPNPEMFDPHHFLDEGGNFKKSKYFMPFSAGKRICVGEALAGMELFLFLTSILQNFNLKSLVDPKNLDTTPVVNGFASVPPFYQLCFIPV
# Cytochrome P450 2C19, sequence (P33261 whole entry): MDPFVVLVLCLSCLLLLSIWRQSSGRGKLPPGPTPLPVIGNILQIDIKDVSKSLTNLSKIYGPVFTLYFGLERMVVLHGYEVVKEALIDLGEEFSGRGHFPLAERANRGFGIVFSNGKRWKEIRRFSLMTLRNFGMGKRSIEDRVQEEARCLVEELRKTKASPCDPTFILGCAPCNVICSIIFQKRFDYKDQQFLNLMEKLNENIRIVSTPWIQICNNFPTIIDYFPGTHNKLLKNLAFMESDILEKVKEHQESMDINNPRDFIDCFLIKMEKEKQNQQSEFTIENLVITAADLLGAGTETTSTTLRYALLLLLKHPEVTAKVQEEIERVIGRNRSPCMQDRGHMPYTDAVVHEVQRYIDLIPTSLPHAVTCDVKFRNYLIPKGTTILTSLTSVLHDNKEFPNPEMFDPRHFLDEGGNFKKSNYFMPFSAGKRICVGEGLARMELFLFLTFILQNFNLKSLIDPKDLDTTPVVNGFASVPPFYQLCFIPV
structure (smiles),measurement,setting,value
COc1ccccc1-c1cnn2c(NCc3ccccc3)cc(C)nc12,EC50,[1],> 300 µM (not active)
same,EC50,[2],> 300 µM (not active)
CCN(CC(=O)Nc1ccccc1C(F)(F)F)C(=O)c1ccc(NC(=O)c2cccs2)cc1,IC50,Protein skinhead-1,> 100 µM (inactive)
O=C(Nc1cc(-c2ccccc2)nn1C1CCCCC1)c1ccc(Cl)cc1,AC50,INS1,5.2 µM (active)
O=C(C[C@@H]1C[C@H]2c3cc(NS(=O)(=O)c4ccc(F)cc4)ccc3O[C@H]2[C@H](CO)O1)N1CCc2ccccc2C1,AC50,[3],9.73 µM (active)
CCOc1ccc(CN(C)C(=O)CNC(=O)c2ccc3ccccc3c2)cc1OC,EC50,[4],> 260 µM (inactive)
CCCNC(=O)N1[C@H](C#N)[C@@H](c2ccccc2C2=CCCC2)[C@@H]1CO,AC50,[3],7.07 µM (active)
Clc1ccc(OCCCCCN2CCOCC2)cc1,IC50,Protein skinhead-1,53.9 µM (inactive)
Cc1ccc(NC(=O)CSCc2cc(=O)n3ccsc3n2)cc1,IC50,Protein skinhead-1,> 100 µM (inactive)
CCCC(=O)O/N=C(\c1ccccc1)c1ccncc1,EC50,[4],> 260 µM (inactive)
CCOC(=O)/C=C/C(=O)N1CCc2ccccc21,EC50,[4],24.7 µM (active)
OCCN(Cc1ccccc1)Cc1cccc(Cl)c1Cl,EC50,[5],> 195 µM (not active)
same,AC50,Cytochrome P450 2D6,1.58 µM (inconclusive)
O=C(CSc1nnc(CN2CCOCC2)n1-c1ccc(Cl)cc1)N1CCc2ccccc21,IC50,Protein skinhead-1,> 100 µM (inactive)
Fc1ccc(-c2nc(-c3cnccn3)no2)c(Cl)c1,EC50,[4],> 260 µM (inactive)
same,IC50,Protein skinhead-1,> 100 µM (inactive)
O=C(N/N=C\c1cc([N+](=O)[O-])ccc1N1CCCC1)c1ccccn1,EC50,[1],70.5 µM (inconclusive)
same,EC50,[2],149 µM (inconclusive)
COc1cccc(Cn2c(=O)c(-c3ccc(Cl)cc3)nc3cnc(N4CCNCC4)nc32)c1,AC50,Cytochrome P450 3A4,15.8 µM (inconclusive)
same,AC50,Cytochrome P450 2D6,39.8 µM (inconclusive)
Cc1ccc(NC(=O)c2c(Cl)n(C)c3ccccc23)cc1,EC50,[4],31.5 µM (active)
COc1nnc(-c2ccc(N3CCCCC3)c(NC(=O)C3CCCCC3)c2)c2ccccc12,AC50,INS1,6.09 µM (active)
c1ccc(-c2noc(-c3cccc4ccccc34)n2)cc1,IC50,Protein skinhead-1,18.8 µM (active)
O=C(CN1C(=O)NC2(CCCCCC2)C1=O)c1ccc2c(c1)OCCO2,EC50,[6],4.64 µM (active)
same,EC50,[7],0.676 µM (active)
COc1ccc([C@H]2CC(=O)C=C(c3ccnc4ccc(Cl)cc34)C2)cc1,AC50,INS1,2.64 µM (active)
N#C/C(=C\c1cn(Cc2ccccc2)c2ccccc12)C(=O)NCc1ccco1,EC50,[4],35.6 µM (active)
Cc1ccc(-c2ccccc2)n1-c1ccc(C(=O)O)cc1,EC50,[1],> 300 µM (not active)
same,EC50,[2],> 300 µM (not active)
O=C(c1cccnc1)C1Cc2ccccc2C1=O (stereo not given),IC50,Protein skinhead-1,> 100 µM (inactive)
CC1(OC(=O)c2cccs2)C(=O)C=C2C=C(c3ccc(C#N)cc3)OC=C2C1=O (stereo not given),EC50,[1],31.3 µM (active)
same,EC50,[2],93.2 µM (active)
COc1ccccc1-c1ccc([C@@H]2[C@@H](CO)N3CCCCN(C(=O)c4ccncc4)C[C@@H]23)cc1,AC50,[3],14.1 µM (active)
C=CCOc1ccc(C2OC34CCCCC3C(C#N)(C#N)C2(C#N)C(=N)O4)cc1 (stereo not given),EC50,[1],9.41 µM (active)
same,EC50,[2],12.5 µM (active)
CCCCn1nnnc1NCc1ccc(C)s1,IC50,Protein skinhead-1,> 100 µM (inactive)
CC(C)c1cccc(C(C)C)c1OC(=O)[C@H]1OC(C(C)(C)C)=C[C@@H]1c1ccccc1,AC50,INS1,7.46 µM (active)
C[C@H](N)Cc1c[nH]c2ccc(O)cc12,AC50,Cytochrome P450 2D6,15.8 µM (inconclusive) and 39.8 µM (inconclusive)
Cc1nc(Sc2ccc(Br)cc2)c(C#N)c(C)c1[N+](=O)[O-],EC50,[4],125 µM (active)
COc1cc(C2C3CN(C)CC=C3C(C#N)=C(N)C2(C#N)C#N)ccc1OC(C)C (stereo not given),EC50,[1],31.3 µM (active)
same,EC50,[2],> 300 µM (inconclusive)
O=C(O)CCCCCNC(=O)c1ccncc1,AC50,Cytochrome P450 2C9,25.1 µM (inconclusive)
same,AC50,Cytochrome P450 2C19,39.8 µM (inconclusive)
same,AC50,Cytochrome P450 1A2,0.01 µM (inconclusive)
COC(=O)c1ccc(Nc2cc(C)nc3ncnn23)cc1,IC50,Protein skinhead-1,> 100 µM (inactive)
CCN(CC)c1nc(C)nc2c1cnn2CCc1ccccc1,EC50,[6],85.2 µM (active)
same,EC50,[7],92.1 µM (active)
CSc1ccc(Cl)c(C(=O)OCC(=O)N(C)CCC#N)c1,EC50,[4],> 260 µM (inactive)
COCC(=O)Nc1ccc2c(c1)C(=O)N(C)C[C@H](OC)[C@H](C)CN(Cc1cc(F)ccc1F)[C@H](C)CO2,AC50,[3],3.74 µM (active)
CC(=O)n1c(/C=N/c2ccccc2)c(O)c2ccccc21,EC50,[1],> 300 µM (not active)
same,EC50,[2],> 300 µM (not active)
Cc1ccccc1/C=C1\CCCc2ccccc2C1=O,EC50,[6],0.172 µM (active)
same,EC50,[7],0.328 µM (active)
CN1CC[C@@]2(CCN3CCc4c(oc5ccccc45)[C@@H]3C2)N(C)C1=O,AC50,Cytochrome P450 3A4,12.6 µM (inconclusive)
same,AC50,Cytochrome P450 2D6,31.6 µM (inconclusive)
CCC(=O)c1ccc(OCC(O)CN2CCN(S(=O)(=O)N3CCCCC3)CC2)cc1 (stereo not given),IC50,Protein skinhead-1,> 100 µM (inactive)
COc1ccccc1CCn1c(=O)c(-c2ccccc2)nc2cncnc21,AC50,Cytochrome P450 2D6,12.6 µM (inconclusive)
CCCn1nc2cc(C(=O)NCc3ccc(OC(F)(F)F)cc3)ccc2c1OCC,IC50,Protein skinhead-1,16.4 µM (active)
O=C(C1=C[C@@H](c2ccc(C(F)(F)F)cc2)C[C@@H](OCCCCO)O1)N1CCN(Cc2ccccc2)CC1,AC50,INS1,5.94 µM (active)
COc1ccc(C(=O)N(C)CC(O)c2ccccc2)cc1OC1CCN(C(C)=O)CC1 (stereo not given),EC50,[4],> 260 µM (inactive)
